For one compound, IC50 results are on record in doi:10.1101/2025.10.21.683780 (bioRxiv, 2025).

One series has as its target T1, OATP1B3 (Homo sapiens, UniProt Q9NPD5).
T1 construct: gene SLCO1B3
T1 sequence (Q9NPD5 1-702): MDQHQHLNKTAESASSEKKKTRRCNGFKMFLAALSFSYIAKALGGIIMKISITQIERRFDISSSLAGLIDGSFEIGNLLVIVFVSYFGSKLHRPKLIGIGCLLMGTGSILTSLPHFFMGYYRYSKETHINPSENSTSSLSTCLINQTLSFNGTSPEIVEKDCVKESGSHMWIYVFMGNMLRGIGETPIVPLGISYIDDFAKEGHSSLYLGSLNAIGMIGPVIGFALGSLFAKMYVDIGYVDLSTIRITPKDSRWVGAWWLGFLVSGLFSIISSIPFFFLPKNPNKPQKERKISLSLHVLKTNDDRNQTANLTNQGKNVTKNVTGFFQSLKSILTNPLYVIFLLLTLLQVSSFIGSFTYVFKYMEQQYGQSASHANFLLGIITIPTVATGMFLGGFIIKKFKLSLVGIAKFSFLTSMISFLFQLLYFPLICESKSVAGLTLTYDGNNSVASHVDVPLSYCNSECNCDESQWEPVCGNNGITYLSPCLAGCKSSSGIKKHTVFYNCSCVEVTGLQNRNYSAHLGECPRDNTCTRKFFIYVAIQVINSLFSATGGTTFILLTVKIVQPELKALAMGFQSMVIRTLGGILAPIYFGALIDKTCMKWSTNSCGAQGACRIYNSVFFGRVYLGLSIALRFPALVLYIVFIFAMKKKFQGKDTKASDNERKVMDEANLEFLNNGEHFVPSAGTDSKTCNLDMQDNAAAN
Format: cell-based. Conditions: hek293 cells.

For a further series, the target named is T2, OAT4 (Homo sapiens, UniProt Q9NSA0).
T2 construct: gene SLC22A11
T2 sequence (Q9NSA0 1-550): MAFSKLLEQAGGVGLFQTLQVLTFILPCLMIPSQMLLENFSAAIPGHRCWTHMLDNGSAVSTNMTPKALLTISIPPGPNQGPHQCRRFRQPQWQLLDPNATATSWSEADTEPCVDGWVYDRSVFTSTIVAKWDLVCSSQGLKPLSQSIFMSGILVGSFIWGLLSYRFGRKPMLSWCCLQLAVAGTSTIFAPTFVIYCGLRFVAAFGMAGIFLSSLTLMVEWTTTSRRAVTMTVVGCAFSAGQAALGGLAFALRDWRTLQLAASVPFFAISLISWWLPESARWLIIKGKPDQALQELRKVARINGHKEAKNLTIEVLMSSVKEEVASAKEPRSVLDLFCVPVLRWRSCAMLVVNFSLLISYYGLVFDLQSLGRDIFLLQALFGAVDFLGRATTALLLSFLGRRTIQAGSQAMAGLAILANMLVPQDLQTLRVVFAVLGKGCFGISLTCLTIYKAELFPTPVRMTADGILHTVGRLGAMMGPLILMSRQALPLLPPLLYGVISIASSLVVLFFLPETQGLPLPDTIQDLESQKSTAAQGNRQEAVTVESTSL
Nature of the series: inhibition of methotrexate uptake in OAT4-expressing HEK293 cells; also transported. Format: cell-based. The following applies: read-out: Dicloxacillin / IC50 (95% CI).

pIC50: −log10 of the molar value.

Take `Cc1onc(-c2c(Cl)cccc2Cl)c1C(=O)N[C@@H]1C(=O)N2[C@@H]1SC(C)(C)[C@@H]2C(=O)O` [dicloxacillin]: the pIC50 was 5.18 on OATP1B3 and 5.14 at OAT4.
